Source: US20170202973A1 (GENENTECH, INC., priority 2009, published 2017)
Where two headings read alike, the source gives them in different places.

Assays:
[1] = cited from earlier work
[2] = test system: HER2-positive metastatic breast cancer; settings: for Patients Censored, % / Patients Censored, number / Patients Progressed, % / Patients Progressed, number: PFS analysis; for CR / Clinical Benefit Rate / Missing tumor response / Objective Response Rate, % / PD / PR / UE: N = 110, updated analysis
Experimental: The analysis of objective response rate was conducted with patient data collected through approximately 26 weeks after the last patient is enrolled in the study. This study enrolled patients with HER2-positive MBC. […] Patients will be required to have HER2-positive status, as evidenced by either 3+ HER2 protein overexpression determined by immunohistochemistry (IHC) or HER2 gene amplification determined by FISH.
Efficacy Assessments: Tumor responses were categorized as complete response (CR), partial response (PR), stable disease (SD), or progressive disease (PD) according to the Response Evaluation Criteria for Solid Tumors (RECIST). Tumor assessments (CT and/or magnetic resonance imaging [MRI] scans) were performed approximately every 6 weeks irrespective of dose delays, interruptions, or reductions. Bone and brain scans (either CT or Mill) were performed at baseline and if clinically indicated during the study. Patient management decisions were made based on tumor assessments performed by investigators. The primary study endpoints related to response were determined by an independent radiologic review of patient scans, with assessments based on investigator reporting being secondary. If each non-target lesion cannot be assessed at a follow-up tumor assessment timepoint, patients may still be considered evaluable for timepoint response as long as all target lesions are measured. Patients with non-target lesions that were not assessed at a timepoint were assessed as having a partial response, stable disease, or progressive disease. All lesions, target and non-target, were assessed before a response was considered confirmed. To reduce the frequency of unevaluable non-target lesions, bone lesions visible on baseline CT scan as non-target lesion(s) for follow-up, were compared with bone lesions identified on the baseline bone scan where possible if lesions are not visible on both modalities or as easily and reproducibly assessed.
Efficacy Assessments: An assessment of the objective response rate, the primary objective of this trial, was based on the RECIST and confirmed by independent review of baseline and follow-up assessments obtained every 6 weeks. All known sites of disease should be reassessed at each timepoint whenever possible. Because bone involvement is a common finding in patients with MBC, a bone scan at baseline may be conducted. In addition, patients with non-target lesions that were not assessed at a timepoint were assessed as having a partial response, stable disease, or progressive disease. All lesions, target and non-target (including bone lesions), were assessed before a complete response can be considered confirmed.
Efficacy Outcome Measures: The primary efficacy outcome measure is objective response (defined as a complete or partial response determined on two consecutive occasions 4 weeks apart), as assessed through independent radiologic review using RECIST. The secondary efficacy outcome measures are as follows: Duration of objective response, as assessed through independent radiologic review using RECIST; PFS, as assessed through independent radiologic review using RECIST; CBR based on independent radiologic review using RECIST; Objective response based on investigator assessments using RECIST; Duration of objective response based on investigator assessments using RECIST; PFS based on investigator assessments using RECIST; and CBR based on investigator assessments using RECIST.
The analysis of objective response rate was conducted with patient data collected through approximately 26 weeks after the last patient was enrolled in the study. In addition, the final analysis of safety and all secondary and exploratory endpoints will be updated with sufficient data when available (estimated to be approximately 10 months after the last patient is enrolled in the study). After the final analysis, the study was closed. […] This study enrolled patients with HER2-positive MBC.

[3] = Investigator, N = 110, initial analysis
[4] = Patients with HER2+ retrospectively confirmed, n = 76, INV, initial analysis
[5] = Patients with HER2+ retrospectively confirmed, n = 76, IRF, initial analysis
[6] = Patients with HER2+ retrospectively confirmed, n = 80, INV, updated analysis
[7] = Patients with HER2+ retrospectively confirmed, n = 80, IRF, updated analysis
[8] = Patients with HER2 normal, n = 15, INV, initial analysis
[9] = Patients with HER2 normal, n = 15, IRF, initial analysis
[10] = of 110 treated, 70 discontinued, data cutoff

COc1cc2cc(c1Cl)N(C)C(=O)C[C@H](OC(=O)[C@H](C)N(C)C(C)=O)[C@]1(C)O[C@H]1[C@H](C)[C@@H]1C[C@@](O)(NC(=O)O1)[C@H](OC)/C=C/C=C(\C)C2 [maytansine]
dose-limiting toxicity (DLT) ([1]; approximately 800 patients, 2.0 mg/m^2 every 3 weeks, single dose or 3 consecutive days): gastrointestinal
activity in the clinic ([1]; at doses that could be safely delivered): modest

trastuzumab-MCC-DM1 [T-DM1]
Patients Censored, % ([2]; INV, all treated patients): 45.5%
Patients Censored, number ([2]; INV, all treated patients): 50 patients
Patients Progressed, % ([2]; INV, all treated patients): 54.5%
Patients Progressed, number ([2]; INV, all treated patients): 60 patients
PFS (months) 25-75% ([2]; INV, all treated patients): 2.8-11.1 months
Missing tumor response, % ([2]; IRF, N = 110, initial analysis): (0.9%)
PD, % ([2]; IRF, N = 110, initial analysis): (18.2%)
PR, % ([2]; IRF, N = 110, initial analysis): (32.7%)
UE, % ([2]; IRF, N = 110, initial analysis): (1.8%)
CR ([2]; IRF): 0%
Clinical Benefit Rate ([2]; IRF): 48.2%
Missing tumor response ([2]; IRF): 0.9%
Objective Response Rate, % ([2]; IRF): 34.5%
PD ([2]; IRF): 18.2%
PR ([2]; IRF): 34.5%
UE ([2]; IRF): 1.8%
Patients Censored, % ([2]; IRF, all treated patients): 54.5%
Patients Censored, number ([2]; IRF, all treated patients): 60 patients
Patients Progressed, % ([2]; IRF, all treated patients): 45.5%
Patients Progressed, number ([2]; IRF, all treated patients): 50 patients
PFS (months) 25-75% ([2]; IRF, all treated patients): 2.6-9.7 months
PFS (months) median ([2]; IRF, all treated patients, initial analysis): 7.3 months
median PFS ([2]; IRF, updated analysis, all treated patients, 95% CI (4.2-8.4)): 6.9
CR, % [2, 3]: (1.8%)
Missing tumor response, % [2, 3]: (2.7%)
PD, % [2, 3]: (13.6%)
PR, % [2, 3]: (28.2%)
UE, % [2, 3]: (0.9%)
CR ([2]; Investigator): 4.5%
Clinical Benefit Rate ([2]; Investigator): 46.4%
Missing tumor response ([2]; Investigator): 0.9%
Objective Response Rate, % ([2]; Investigator): 32.7%
PD ([2]; Investigator): 14.5%
PR ([2]; Investigator): 28.2%
UE ([2]; Investigator): 0.9%
Clinical benefit rate, % [2, 4]: 47.4%
ORR, % [2, 4]: 36.8%
Clinical benefit rate, % [2, 5]: 52.6%
ORR, % [2, 5]: 39.5%
Clinical benefit rate, % [2, 6]: (53.8%)
ORR, % [2, 6]: (40.0%)
Clinical benefit rate, % [2, 7]: (55.0%)
ORR, % [2, 7]: (41.3%)
Clinical benefit rate, % [2, 8]: 20.0%
ORR, % [2, 8]: 13.3%
Clinical benefit rate, % [2, 9]: 26.7%
ORR, % [2, 9]: 20.0%
patients that discontinued treatment with progressive disease, % [2, 10]: 52.7%
patients that discontinued treatment with progressive disease, number [2, 10]: 58 patients
